Experiments:
Format in all cases: in vivo
[1] = system: Echinochloa crus-galli (ECHCG); assay: Post-emergence Test, ECHCG; details: sprayed after 8 days cultivation, 1000 g/ha, evaluated after 13 days
Protocol: (§1) Seeds of a variety of test species are sown in standard soil in pots (Amaranthus retoflexus (AMARE), Solarium nigrum (SOLNI), Setaria faberi (SETFA), Lolium perenne (LOLPE), Echinochloa crus-galli (ECHCG), Ipornoea hederacea (IPOHE)). After 8 days cultivation under controlled conditions in a glasshouse (at 24° C./16° C., day/night; 14 hours light; 65% humidity), the plants are sprayed with an aqueous spray solution derived from the formulation of the technical active ingredient in acetone/water (50:50) solution containing 0.5% Tween 20 (polyoxyethylene sorbitan monolaurate, CAS RN 9005-64-5). Compounds are applied at 1000 g/ha unless otherwise stated. The test plants are then grown in a glasshouse under controlled conditions in a glasshouse (at 24° C./16° C., day/night; 14 hours light; 65% humidity) and watered twice daily. After 13 days the test is evaluated for the percentage damage caused to the plant. The biological activities are shown in the following table on a five-point scale (5=81-100%; 4=61-80%; 3=41-60%; 2=21-40%; 1=10-20%; 0=0%; −=not tested).

[2] = system: Amaranthus retoflexus (AMARE); assay: Pre-emergence Test, AMARE; details: 1000 g/ha, evaluated after 13 days
[3] = system: Setaria faberi (SETFA); assay: Post-emergence Test, SETFA; details: sprayed after 8 days cultivation, 1000 g/ha, evaluated after 13 days
Protocol: as §1

[4] = system: ABUTH; assay: Pre-emergence Test, ABUTH; details: 1000 g/ha, evaluated after 13 days
[5] = system: Echinochloa crus-galli (ECHCG); assay: Pre-emergence Test, ECHCG; details: 1000 g/ha, evaluated after 13 days
[6] = system: ZEAMX; assay: Pre-emergence Test, ZEAMX; details: 1000 g/ha, evaluated after 13 days
[7] = system: ZEAMX; assay: Post-emergence Test, ZEAMX; details: sprayed after 8 days cultivation, 1000 g/ha, evaluated after 13 days
Protocol: [The procedure below names another target; the source lists this target under the same test.] as §1

[8] = system: Amaranthus retoflexus (AMARE); assay: Post-emergence Test, AMARE; details: sprayed after 8 days cultivation, 1000 g/ha, evaluated after 13 days
Protocol: as §1

[9] = system: Ipornoea hederacea (IPOHE); assay: Post-emergence Test, IPOHE; details: sprayed after 8 days cultivation, 1000 g/ha, evaluated after 13 days
Protocol: as §1

[10] = system: Ipornoea hederacea (IPOHE); assay: Pre-emergence Test, IPOHE; details: 1000 g/ha, evaluated after 13 days
[11] = system: Setaria faberi (SETFA); assay: Pre-emergence Test, SETFA; details: 1000 g/ha, evaluated after 13 days
[12] = system: ABUTH; assay: Post-emergence Test, ABUTH; details: sprayed after 8 days cultivation, 1000 g/ha, evaluated after 13 days
Protocol: [The procedure below names another target; the source lists this target under the same test.] as §1

| SMILES | percentage damage caused to the plant, ECHCG [1] | percentage damage caused to the plant, AMARE [2] | percentage damage caused to the plant, SETFA [3] | percentage damage caused to the plant, ABUTH [4] | percentage damage caused to the plant, ECHCG [5] | percentage damage caused to the plant, ZEAMX [6] | percentage damage caused to the plant, ZEAMX [7] | percentage damage caused to the plant, AMARE [8] | percentage damage caused to the plant, IPOHE [9] | percentage damage caused to the plant, IPOHE [10] | percentage damage caused to the plant, SETFA [11] | percentage damage caused to the plant, ABUTH [12] |
| --- | --- | --- | --- | --- | --- | --- | --- | --- | --- | --- | --- | --- |
| O=C(O)c1nn(-c2ccc(OC(F)(F)F)cc2)c2cccc(N3CCOCC3)c2c1=O [Compound P25, 5-morpholino-4-oxo-1-[4-(trifluoromethoxy)phenyl] cinnoline-3-carboxylic acid] | 0 (0=0%) | 0 (0=0%) | 0 (0=0%) | 0 (0=0%) | 0 (0=0%) | 0 (0=0%) | 0 (0=0%) | 0 (0=0%) | 0 (0=0%) | 0 (0=0%) | 0 (0=0%) | 0 (0=0%) |
| CCOC(=O)c1nn(-c2ccc(OC(F)(F)F)cc2)c2cccc(N3CCCCC3)c2c1=O [Compound P27, ethyl 4-oxo-5-(1-piperidyl)-1-[4-(trifluoromethoxy)phenyl] cinnoline-3-carboxylate] | 0 (0=0%) | 0 (0=0%) | 0 (0=0%) | 0 (0=0%) | 0 (0=0%) | 0 (0=0%) | 0 (0=0%) | 0 (0=0%) | 0 (0=0%) | 0 (0=0%) | 0 (0=0%) | 0 (0=0%) |
| CCOC(=O)c1nn(-c2ccc(OC(F)(F)F)cc2)c2cccc(-n3ncc(C(F)(F)F)n3)c2c1=O [Compound P34, ethyl 4-oxo-1-[4-(trifluoromethoxy)phenyl]-5-[4-(trifluoromethyl)triazol-2-yl]cinnoline-3-carboxylate] | 0 (0=0%) | 0 (0=0%) | 0 (0=0%) | 0 (0=0%) | 0 (0=0%) | 2 (2=21-40%) | 0 (0=0%) | 0 (0=0%) | 0 (0=0%) | 0 (0=0%) | 0 (0=0%) | 0 (0=0%) |
| CCOC(=O)c1nn(-c2ccc(OC(F)(F)F)cc2)c2cccc(C(F)F)c2c1=O [Compound P36, ethyl 5-(difluoromethyl)-4-oxo-1-[4-(trifluoromethoxy)phenyl] cinnoline-3-carboxylate] | 0 (0=0%) | 0 (0=0%) | 1 (1=10-20%) | 1 (1=10-20%) | 0 (0=0%) | 0 (0=0%) | 0 (0=0%) | 0 (0=0%) | 0 (0=0%) | 1 (1=10-20%) | 2 (2=21-40%) | 0 (0=0%) |
| CCOC(=O)c1nn(-c2ccc(OC(F)(F)F)cc2)c2cccc(C(C)=O)c2c1=O [Compound P30, ethyl 5-acetyl-4-oxo-1-[4-(trifluoromethoxy)phenyl] cinnoline-3-carboxylate] | 4 (4=61-80%) | 1 (1=10-20%) | 4 (4=61-80%) | 2 (2=21-40%) | 4 (4=61-80%) | 4 (4=61-80%) | 3 (3=41-60%) | 1 (1=10-20%) | 2 (2=21-40%) | 1 (1=10-20%) | 5 (5=81-100%) | 3 (3=41-60%) |
| C/C(=N\O)c1cccc2c1c(=O)c(C(=O)O)nn2-c1ccc(OC(F)(F)F)cc1 [Compound P15, 5-[(E)-N-hydroxy-C-methyl-carbonimidoyl]-4-oxo-1-[4-(trifluoromethoxy)phenyl] cinnoline-3-carboxylic acid] | 4 (4=61-80%) | 2 (2=21-40%) | 3 (3=41-60%) | 2 (2=21-40%) | 4 (4=61-80%) | 3 (3=41-60%) | 3 (3=41-60%) | 1 (1=10-20%) | 3 (3=41-60%) | 0 (0=0%) | 5 (5=81-100%) | 3 (3=41-60%) |
| CCOC(=O)c1nn(-c2ccc(OC(F)(F)F)cc2)c2cccc(-n3cc(Cl)cn3)c2c1=O [Compound P32, ethyl 5-(4-chloropyrazol-1-yl)-4-oxo-1-[4-(trifluoromethoxy)phenyl] cinnoline-3-carboxylate] | 3 (3=41-60%) | 2 (2=21-40%) | 3 (3=41-60%) | 2 (2=21-40%) | 4 (4=61-80%) | 2 (2=21-40%) | 1 (1=10-20%) | 1 (1=10-20%) | 1 (1=10-20%) | 0 (0=0%) | 4 (4=61-80%) | 1 (1=10-20%) |
| CCOC(=O)c1nn(-c2ccc(OC(F)(F)F)cc2)c2cccc(N3CCCC3)c2c1=O [Compound P28, ethyl 4-oxo-5-pyrrolidin-1-yl-1-[4-(trifluoromethoxy)phenyl] cinnoline-3-carboxylate] | 0 (0=0%) | 0 (0=0%) | 0 (0=0%) | 0 (0=0%) | 0 (0=0%) | 0 (0=0%) | 0 (0=0%) | 0 (0=0%) | 0 (0=0%) | 0 (0=0%) | 0 (0=0%) | 0 (0=0%) |
| CCOC(=O)c1nn(-c2ccc(OC(F)(F)F)cc2)c2cccc(CC=O)c2c1=O [Compound P18, ethyl 4-oxo-5-(2-oxoethyl)-1-[4-(trifluoromethoxy)phenyl] cinnoline-3-carboxylate] | 1 (1=10-20%) | 0 (0=0%) | 1 (1=10-20%) | 0 (0=0%) | 0 (0=0%) | 0 (0=0%) | 1 (1=10-20%) | 0 (0=0%) | 1 (1=10-20%) | 0 (0=0%) | 1 (1=10-20%) | 1 (1=10-20%) |
| CCOC(=O)c1nn(-c2ccc(OC(F)(F)F)cc2)c2cccc(C#N)c2c1=O [Compound P38, ethyl 5-cyano-4-oxo-1-[4-(trifluoromethoxy)phenyl] cinnoline-3-carboxylate] | 5 (5=81-100%) | 3 (3=41-60%) | 4 (4=61-80%) | 0 (0=0%) | 5 (5=81-100%) | 2 (2=21-40%) | 2 (2=21-40%) | 3 (3=41-60%) | 3 (3=41-60%) | 1 (1=10-20%) | 5 (5=81-100%) | 1 (1=10-20%) |
